According to publication PMC3303619, “In Situ Absorption in Rat Intestinal Tract of Solid Dispersion of Annonaceous Acetogenins” (Gastroenterology Research and Practice, 2012):
In brackets after ≈: the same amount, converted by molar mass.

Experiments:
intestinal loop in rats = assay: Single-pass intestinal perfusion (SPIP) in rats at different perfusate concentrations; assay type: in vivo, Sprague-Dawley rats; conditions: values are P app × 10^3, mean ± SD, n = 6
Procedure: We used male Sprague-Dawley rats weighing 250 ± 20 g for all perfusion studies. The drug solution was prepared by dispersing the ACGs-SD in the K-R buffer solution and installed in the cylinder, which was incubated in at 37°C water bath to maintain temperature.
The in situ SPIP experiment was conducted according to the previously published reports. Firstly, six male Sprague-Dawley rats were placed in respective cages and fasted overnight before the experiment with free access to water. Rats were anesthetized with an intraperitoneal injection of pentobarbital sodium (40 mg/Kg body weight, i.p. injection), restrained in a supine position, and kept at a body temperature of 37°C using infrared lamps.
Bile duct was ligated and the intestinal content was immediately washed away with 37°C saline solution at a flow rate of 5 mL/min, by cannulating polyethylene tubings (3.2 mm diameter) using a peristaltic pump (BT00-100 M, Baoding Longer Precision Pump Co., Ltd., China). The isolated segment, duodenum, jejunum, ileum, and colon were rinsed with physiological saline to clean any residual debris until the out flowing became colorless. Then, the intestinal loop was made by ligating both ends of the intestinal loop from 4 cm below the bile duct opening to a segment above the ileocecum of small intestine of anesthetized rats. Care was taken to handle the small intestine gently in order to maintain an intact blood supply. The whole surgical area was covered with a piece of sterilized gauze wetted with physiological saline solution.
ACGs-SD was dissolved in K-R buffer solution (0.35 g KCl, 1.37 g NaHCO3, 7.8 g NaCl, 0.22 g NaH2PO4, 0.02 g MgCl2, and glucose in 1.48 g/1000 mL purified water, pH 6.5) at a concentration of 200 μg/mL, 300 μg/mL, 500 μg/mL of ACGs, and the solution was administered to the loop via the polyethylene tubing inserted into the loop. At the start of the study, the perfusion buffer containing sample solution was first perfused at a flow rate of 5 mL/min to ensure filling the segment rapidly, and the time was set to zero with the immediate start of the perfusion and the solution volume in circulation was recorded as the 0 min volume. After 10 min, when steady-state condition was achieved, the flow rate was adjusted to 0.2 mL/min, and the outlet perfused samples were collected at time intervals (5, 10, 15, 30, 60, 90, 120 min) for 2 h. During 2 h perfusion period, at each time period, assemble the outlet solution. At the end of the experiment, the length of perfused intestinal segment was measured without stretching.
(§1) The effective permeability (K a, P app) of the drug disappearing from the intestinal lumen during the intestinal perfusion was calculated by the steady-state equation: (1) Ka =(1−CoutQout/CinQin)Q/VPapp=[− Qin·ln (CoutQout/CinQin)]/2πrL where the radius of the gut lumen was represented by r, its length by L, and the perfusate flow rate by Q (mL/min). V presents the volume of the tested intestinal. The fraction C out/C in represents the concentration of the drμg leaving the perfused segment (C out) normalized to the concentration entering the segment (C in). The C out values were corrected for net water flux by the gravimetric method.
(§2) Once the intestinal segment reached steady state, subsequent values of C out/C in were used to calculate P app. P app represents the permeability of the compound (cm/s) as determined by the disappearance of the compound from the intestinal lumen. Steady state was assumed to be reached when C out/C in reached a constant value, as determined by direct observation of the data.

[1] = Solubility studies in distilled water; assay type: physicochemical; conditions: 37 °C, thermodynamic from solid, component from ACGs solid dispersion (PEG 4000), 37 ± 0.5°C
Procedure: Solubility studies were conducted by placing an excess amount of ACGs (approximately 15 mg) and ACG-solid dispersion in 10 mL distilled water, and the mixture was heated at 37 ± 0.5°C in a water bath to facilitate the solubilization using a vortex mixer. Mixtures were equilibrated at 37 ± 0.5°C for 72 h in a water bath. The equilibrated samples were centrifuged at 3000 rpm for 15 min to remove the undissolved material. The supernatant was determined by HPLC.

[2] = Stability of ACGs in K-R buffer solution; assay type: physicochemical; conditions: ACGs-SD in K-R buffer, 37°C, n = 3
Procedure: Exact amount of ACGs-SD was dissolved in K-R buffer solution at 37°C in water bath. Chermolin-1, annonacin, squamocin, and annonin-VI were determined at 0, 30, 60, 90, and 120 min to analysis the stability of ACGs in K-R buffer solution.

[3] = system: duodenum, jejunum, ileum, and colon segment; assay: SPIP in different intestinal segments; assay type: in vivo, Sprague-Dawley rats; conditions: 300 μg/mL, values are P app × 10^3, mean ± SD, n = 6
Description: The study followed the method described in Li et al. and Dahan and Amidon. Each 10 cm long intestinal segment was isolated as follows: duodenum segment beginning from 1 cm distal to pylorus, jejunum segment beginning from 15 cm away from pylorus, ileum segment beginning at the site 20 cm upwards caecum, while segment colon beginning at the site 2 cm distal to caecum. The above segments were carefully cannulated and ligated with both the ends. Then, each segment was perfused with solution containing different mass of ACGs.
as §1, §2

[4] = Stability of sample solution during storing and preparation (freeze-thaw, room temperature, stock solution); assay type: physicochemical; conditions: for Accuracy (mean ± SD)%, Freeze-thaw (three cycles): three freeze (−20°C) and thaw (room temperature) cycles, compared to nominal concentration
Procedure: The stability of sample solution was also tested at room temperature and 4°C, respectively, for 24 h. For freeze-thaw stability testing, the samples were determined after three freeze (−20°C) and thaw (room temperature) cycles, and the concentration was compared to their nominal concentration. For the short-term stability, the samples (three replicates at each QC concentration) were extracted and placed at room temperature for 24 h and then injected into the HPLC system for analysis.
Stock solutions of ACGs were stable for at least 30 days when stored at 4°C. No significant change was found after three freeze-thaw cycles and stored at room temperature for 24 h (Table 1).

T24 bladder cancer cells = system: T24 bladder cancer cells; parameters: method as in PMID 16154156; conditions: cytotoxicity in a Bax- and caspase-3-related pathway; cited from earlier work
complex I = system: complex I; parameters: method as in PMID 8037664; conditions: mammalian mitochondria; steady-state and nonsteady-state conditions; cited from earlier work
K562 cells = system: K562 cells; parameters: method as in PMID 16310807; conditions: cited from earlier work
[5] = ACGs-SD perfusate concentration 200 μg · mL^−1
[6] = ACGs-SD perfusate concentration 300 μg · mL^−1
[7] = ACGs-SD perfusate concentration 500 μg · mL^−1

Row | SMILES | P app × 10^3 (intestinal loop in rats; [5]) [cm · s^−1] | P app × 10^3 (intestinal loop in rats; [6]) [cm · s^−1] | P app × 10^3 (intestinal loop in rats; [7]) [cm · s^−1] | solubility at 72 h [1] [µg/mL] | Stability in K-R buffer solution, remaining ([2]; time 0 h) [%] | Stability in K-R buffer solution, remaining ([2]; time 0.5 h) [%] | Stability in K-R buffer solution, remaining ([2]; time 1 h) [%] | Stability in K-R buffer solution, remaining ([2]; time 2 h) [%] | P app × 10^3 ([3]; Duodenum) [cm · s^−1] | P app × 10^3 ([3]; Ileum) [cm · s^−1] | P app × 10^3 ([3]; Jejunum) [cm · s^−1] | P app × 10^3 ([3]; colon) [cm · s^−1] | Accuracy (mean ± SD)%, Samples at room temperature for 24 h [4] [%] | Accuracy (mean ± SD)%, Freeze-thaw (three cycles) [4] [%] | Effect on cell cycle of T24 bladder cancer cells (T24 bladder cancer cells) | Effect on proton pumping function of complex I (complex I) | Effect on proliferation of K562 cells (K562 cells)
1 | CCCCCCCCCCCC[C@@H](O)[C@H]1CC[C@H]([C@H](O)CCCC[C@H](O)CCCCC[C@@H](O)CC2=CC(C)OC2=O)O1 (some centres unmarked) [Annonacin, annonacin] | 1.29 ± 0.12 | 0.92 ± 0.23 | 0.69 ± 0.31 | 213 (≈ 357 µM) | 100 | 98.63 | 98.59 | 96.16 | 1.36 ± 0.34 | 1.17 ± 0.49 | 1.38 ± 0.82 | 0.95 ± 0.45 | 96.3 ± 2.1 | 96.0 ± 1.0 | arrest T24 bladder cancer cells at the G1 phase |  | 
2 | CCCCCCCCCC[C@H](O)[C@H]1CC[C@H]([C@H]2CC[C@H]([C@H](O)CCCCCCCCCC[C@@H](O)CC3=C[C@H](C)OC3=O)O2)O1 [Annonin-VI, annonin-VI] | 0.75 ± 0.37 | 0.75 ± 0.21 | 0.79 ± 0.30 | 250 (≈ 401 µM) | 100 | 95.64 | 99.59 |  | 2.28 ± 0.29 | 1.26 ± 0.30 | 1.87 ± 0.29 | 1.10 ± 0.45 | 98.3 ± 2.1 | 99.3 ± 5.0 |  | inhibited the proton pumping function of complex I | 
3 | CCCCCC[C@H](O)CCC[C@H](O)[C@H]1CC[C@H]([C@H]2CC[C@H]([C@H](O)CCCCCCCCCCCCC3=C[C@H](C)OC3=O)O2)O1 [Squamocin, squamocin] | 0.96 ± 0.28 | 0.96 ± 0.27 | 0.93 ± 0.32 | 1080 (≈ 1740 µM) | 100 | 100.51 | 99.86 | 98.58 | 1.24 ± 0.27 | 1.14 ± 0.31 | 1.30 ± 0.27 | 1.03 ± 0.19 | 101.3 ± 6.2 | 101.6 ± 4.2 |  |  | inhibit the proliferation of K562 cells via G2/M arrest
